Target: T1, Pq3-O-UGT2 (Panax quinquefolius, UniProt A0A0M4ME80)
T1 construct: pET-28a, C-terminal TEV site and 6xHis tag, E. coli Rosetta (DE3); Ni-NTA, HiTrap Q, Mono Q, Superdex 200; monomer; domains a.a; 1-442
T1 sequence (A0A0M4ME80 1-442): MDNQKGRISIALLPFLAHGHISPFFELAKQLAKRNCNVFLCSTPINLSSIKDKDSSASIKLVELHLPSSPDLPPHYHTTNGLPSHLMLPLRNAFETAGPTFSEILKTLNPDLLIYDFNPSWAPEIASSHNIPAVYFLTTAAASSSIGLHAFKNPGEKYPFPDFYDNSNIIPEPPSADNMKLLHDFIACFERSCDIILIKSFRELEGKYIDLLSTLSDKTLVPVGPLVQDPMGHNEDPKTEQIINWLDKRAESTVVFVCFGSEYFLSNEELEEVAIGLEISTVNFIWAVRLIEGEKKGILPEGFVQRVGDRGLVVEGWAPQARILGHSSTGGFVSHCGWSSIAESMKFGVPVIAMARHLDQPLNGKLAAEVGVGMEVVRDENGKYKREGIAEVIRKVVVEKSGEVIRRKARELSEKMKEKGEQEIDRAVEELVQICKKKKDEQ
Experiment: X-ray crystallography, co-crystal, […] Å
Settings: acceptor-binding pocket in N-terminal domain

With `CC(C)=CCC[C@](C)(O)[C@H]1CC[C@]2(C)[C@@H]1[C@H](O)C[C@@H]1[C@@]3(C)CC[C@H](O[C@@H]4O[C@H](CO)[C@@H](O)[C@H](O)[C@H]4O)C(C)(C)[C@@H]3CC[C@]12C` [Rh2, Ginsenoside Rh2] the “X-ray crystallography, co-crystal, 3.5 Å” value was “we solved crystal structures of apo Pq3‐O‐UGT2 and its complex with Rh2”.

Source: paper PMC11923902, “Structural Insights into the Substrate Recognition of Ginsenoside Glycosyltransferase Pq3‐O‐UGT2” (Advanced Science, 2025)
